Where two headings read alike, the source gives them in different places.

Common to all, as to type: physicochemical
Data set [1] in a line: Solubility determination in a variety of solvents. How it is done:
The solubility of the compound of Formula I in a variety of solvents was measured according to routine methods at 23° C. and 50° C.

Data set [2] is described as follows: Reslurry experiments, 12 days at RT, XRD while wet. To be noted: ethanol, IPA, ethyl acetate, acetone, THF, acetonitrile, toluene, iso-propyl acetate, water, days 6 and 12. The procedure:
4-cyano-N-{(2R)-2-[4-(2,3-dihydro-benzo[1,4]dioxin-5-yl)-piperazin-1-yl]-propyl}-N-pyridin-2-yl-benzamide hydrochloride was reslurried in about 1-2 ml of ethanol, IPA, ethyl acetate, acetone, THF, acetonitrile, toluene, iso-propyl acetate, and water. The suspensions were stirred in 5 ml vials for 12 days at RT. The suspension samples were withdrawn at days 6 and 12, filtered, and analyzed via XRD while wet.

Data set [3] is described as follows: Polymorph screen by reslurry at 23° C. and 50° C. The following applies: slurrying in a variety of different solvents at 23° C. and 50° C. The text has this: Thermogravimetric analysis (TGA) and differential scanning calorimetry (DSC) data of products of various re-slurries are compared in Tables B and C below together with TGA/DSC data from the crystal form of the invention prepared according to Example 1. TGA/DSC data was obtained as described in Example 3. While DSC endotherms and TGA weight losses slightly differ between experiments, the variation is expected for HCl loss and decomposition of the sample. Powder X-ray diffraction data (see below Examples) of samples from each of the slurries were consistent with the diffraction pattern of FIG. 1 and Table 1.

Consider `C[C@H](CN(C(=O)c1ccc(C#N)cc1)c1ccccn1)N1CCN(c2cccc3c2OCCO3)CC1.Cl` [Formula I, 4-cyano-N-{(2R)-2-[4-(2,3-dihydro-benzo[1,4]dioxin-5-yl)-piperazin-1-yl]-propyl}-N-pyridin-2-yl-benzamide hydrochloride], for which the solubility (as a rule, the concentration that dissolves in the medium under given conditions) in data set [1] (organic solvent or mixture, solvent 2-Propanol, 23° C., read-out: Solubility at 23° C.) came out at 2 mg/mL; in data set [1] (organic solvent or mixture, solvent 2-Propanol, 50° C., read-out: Solubility at 50° C.), 6 mg/mL; in data set [1] (organic solvent or mixture, solvent Acetone, 23° C., read-out: Solubility at 23° C.) it was 6 mg/mL; in data set [1] (organic solvent or mixture, solvent Acetone, 50° C., read-out: Solubility at 50° C.), 9 mg/mL; in data set [1] (organic solvent or mixture, solvent CH3CN, 23° C., read-out: Solubility at 23° C.), 18 mg/mL; in data set [1] (organic solvent or mixture, solvent CH3CN, 50° C., read-out: Solubility at 50° C.), 37 mg/mL. For the same compound, the solubility in data set [1] (organic solvent or mixture, solvent DMSO, 23° C., read-out: Solubility at 23° C.) is 246 mg/mL; in data set [1] (organic solvent or mixture, solvent DMSO, 50° C., read-out: Solubility at 50° C.) it was 337 mg/mL; in data set [1] (organic solvent or mixture, solvent EtOH, 23° C., read-out: Solubility at 23° C.), 19 mg/mL; in data set [1] (organic solvent or mixture, solvent EtOH, 50° C., read-out: Solubility at 50° C.) it was 40 mg/mL; in data set [1] (organic solvent or mixture, solvent Ethyl acetate, 23° C., read-out: Solubility at 23° C.), 16 mg/mL; in data set [1] (organic solvent or mixture, solvent Ethyl acetate, 50° C., read-out: Solubility at 50° C.), 24 mg/mL. Also, the solubility in data set [1] (organic solvent or mixture, solvent Heptane, 23° C., read-out: Solubility at 23° C.) was determined as 1 mg/mL; in data set [1] (organic solvent or mixture, solvent Heptane, 50° C., read-out: Solubility at 50° C.) it was 1 mg/mL; in data set [1] (organic solvent or mixture, solvent MeOH, 23° C., read-out: Solubility at 23° C.), 378 mg/mL; in data set [1] (organic solvent or mixture, solvent MeOH, 50° C., read-out: Solubility at 50° C.), 989 mg/mL; in data set [1] (organic solvent or mixture, solvent THF, 23° C., read-out: Solubility at 23° C.) it was 4 mg/mL; in data set [1] (organic solvent or mixture, solvent THF, 50° C., read-out: Solubility at 50° C.) it was 5 mg/mL. The solubility in data set [1] (organic solvent or mixture, solvent Toluene, 23° C., read-out: Solubility at 23° C.) was 8 mg/mL; in data set [1] (organic solvent or mixture, solvent Toluene, 50° C., read-out: Solubility at 50° C.), 14 mg/mL; in data set [1] (organic solvent or mixture, solvent t-Butylmethyl ether (t-BME), 50° C., read-out: Solubility at 50° C.), 1 mg/mL; in data set [1] (solvent Water, 23° C., read-out: Solubility at 23° C.), 49 mg/mL; in data set [1] (solvent Water, 50° C., read-out: Solubility at 50° C.), above 100 mg/mL. For the same compound, the “Solubility in water (qualitative)” value in data set [1] (water, remark explaining oiling out on cooling) is given as “very high solubility”.
For the compound `C[C@H](CN(C(=O)c1ccc(C#N)cc1)c1ccccn1)N1CCN(c2cccc3c2OCCO3)CC1.Cl` [Form A, 4-cyano-N-{(2R)-2-[4-(2,3-dihydro-benzo[1,4]dioxin-5-yl)-piperazin-1-yl]-propyl}-N-pyridin-2-yl-benzamide hydrochloride], the “Form transformation on reslurry (XRD)” value in data set [2] is “No transformation was noticed”. In data set [3], the “Stability of crystal form upon slurrying” value is “remained stable”.

For the origin of these results see patent publication US20070027162A1, “Crystalline and amorphous 4-cyano-N-{(2R)-2-[4-(2,3-dihydro-benzo[1,4]dioxin-5-yl)-piperazin -1-yl]-propyl}-N-pyridin-2-yl-benzamide hydrochloride” (Wyeth, priority 2005, published 2007).
